# Measured values: paper PMC6907063, “The Herb-Drug Pharmacokinetic Interaction of Fluoxetine and Its Metabolite Norfluoxetine with a Traditional Chinese Medicine in Rats by LC-MS/MS” (Evidence-based Complementary and Alternative Medicine : eCAM, 2019)
# Tests used:
# [1] = Stability of the analytes in QC samples (LC-MS/MS method validation); assay type: physicochemical, rat; conditions: n = 5
# Description: Quality control (QC) samples were prepared in the same way as mentioned above. […] All stability studies were evaluated at low, medium, and high QC levels with five determinations for each test. The relative standard deviations (RSDs) were used to evaluate the stability of the analytes. The RSD was expected to be within ±15.0%.
# [2] = continuous administration of FLU for 2 weeks; cited from earlier work
# [3] = rat, in vivo, po, 1.8 mg/kg
# in vivo = conditions: Sprague-Dawley, rat, po, 1.8 mg/kg
# [4] = Pharmacokinetics of fluoxetine and its metabolite norfluoxetine in rat plasma after oral fluoxetine with or without CSGS for 14 d (LC-MS/MS)
smiles,measurement,setting,value
NCCC(Oc1ccc(C(F)(F)F)cc1)c1ccccc1 (stereo not drawn) [norfluoxetine],"Measured C, at room temperature for 4 h",[1]; QC concentration 2 ng/ml,1.943 ± 0.054 ng/mL
same,"Measured C, freeze-thaw three cycles",[1]; QC concentration 2 ng/ml,1.879 ± 0.045 ng/mL
same,"Measured C, −20°C for 4 weeks",[1]; QC concentration 2 ng/ml,1.873 ± 0.044 ng/mL
same,"Measured C, at room temperature for 4 h",[1]; QC concentration 4 ng/ml,3.934 ± 0.186 ng/mL
same,"Measured C, freeze-thaw three cycles",[1]; QC concentration 4 ng/ml,4.012 ± 0.231 ng/mL
same,"Measured C, −20°C for 4 weeks",[1]; QC concentration 4 ng/ml,3.891 ± 0.156 ng/mL
same,"Measured C, at room temperature for 4 h",[1]; QC concentration 8 ng/ml,7.897 ± 0.234 ng/mL
same,"Measured C, freeze-thaw three cycles",[1]; QC concentration 8 ng/ml,7.987 ± 0.341 ng/mL
same,"Measured C, −20°C for 4 weeks",[1]; QC concentration 8 ng/ml,7.871 ± 0.246 ng/mL
COc1ccc2[nH]c([S+]([O-])Cc3ncc(C)c(OC)c3C)nc2c1 (stereo not drawn) [omeprazole],increase of AUC,[2],7.1 times
CNCCC(Oc1ccc(C(F)(F)F)cc1)c1ccccc1 (stereo not drawn) [fluoxetine],"Measured C, at room temperature for 4 h",[1]; QC concentration 1 ng/ml,1.010 ± 0.028 ng/mL
same,"Measured C, freeze-thaw three cycles",[1]; QC concentration 1 ng/ml,0.997 ± 0.012 ng/mL
same,"Measured C, −20°C for 4 weeks",[1]; QC concentration 1 ng/ml,0.987 ± 0.018 ng/mL
same,"Measured C, at room temperature for 4 h",[1]; QC concentration 4 ng/ml,3.965 ± 0.210 ng/mL
same,"Measured C, freeze-thaw three cycles",[1]; QC concentration 4 ng/ml,3.991 ± 0.212 ng/mL
same,"Measured C, −20°C for 4 weeks",[1]; QC concentration 4 ng/ml,4.012 ± 0.231 ng/mL
same,"Measured C, at room temperature for 4 h",[1]; QC concentration 16 ng/ml,15.832 ± 0.536 ng/mL
same,"Measured C, freeze-thaw three cycles",[1]; QC concentration 16 ng/ml,15.872 ± 0.845 ng/mL
same,"Measured C, −20°C for 4 weeks",[1]; QC concentration 16 ng/ml,15.872 ± 0.654 ng/mL
same,AUC (0–∞) of fluoxetine,[3],12.20 ± 2.67 ug/L∗h
same,Tmax,in vivo,0.75 h
same,Cmax,in vivo; C max of fluoxetine,2.19 ng/mL
same,CL/F,in vivo; CLz/F of fluoxetine,2490 mL/min/kg
same,Cmax,in vivo; Cmax of fluoxetine,2.19 ng/mL
same,MRT last,in vivo; MRT (0–t) of fluoxetine,7.67 ± 1.02 h
same,half-life,in vivo; t1/2z of fluoxetine,8.95 ± 7.5 h
same,AUCs (0–∞) of FLU,[4]; FLU group (fluoxetine 1.8 mg/kg·d for 14 d),12.20 ± 2.67 μg/L∗h
same,AUCs (0–∞) of FLU,[4]; multiple dose group A (CSGS […]·d + fluoxetine 1.8 mg/kg·d),11.20 ± 3.86 μg/L∗h
same,AUCs (0–∞) of FLU,[4]; multiple dose group B (CSGS 11.8 g/kg·d + fluoxetine 1.8 mg/kg·d),14.54 ± 3.22 μg/L∗h
same,AUCs (0–∞) of FLU,[4]; multiple dose group C (CSGS 23.6 g/kg·d + fluoxetine 1.8 mg/kg·d),22.01 ± 4.49 μg/L∗h
COc1ccc2c(c1)[C@]13CCCC[C@@H]1[C@H](C2)N(C)CC3 [dextromethorphan],increase of AUC,[2],27 times
CC[C@H](C)C(=O)O[C@H]1C[C@@H](C)C=C2C=C[C@H](C)[C@H](CC[C@@H]3C[C@@H](O)CC(=O)O3)[C@H]21 [lovastatin],effect on AUC,[2],did not affect
Cc1ncc2n1-c1ccc(Cl)cc1C(c1ccccc1F)=NC2 [midazolam],effect on AUC,[2],did not affect
